{"source": "patent US20010036955A1", "about": "“Method of inhibiting angiogenesis” (Genentech, Inc., priority 1998, published 2001)", "assay_type_in_all_cases": "cell-based, human", "key": {"[1]": {"tested_on": "HUVEC tube formation", "test": "Endothelial tube assay (number of tubes, three-dimensional collagen gels)", "procedure": "In this model, endothelial cells are suspended in a three-dimensional collagen lattice of type I collagen and undergo rapid morphogenesis. Within 4 hr numerous vacuoles are observed in the majority of endothelial cells; at 24 hr the formation of tube-like structures can be observed and at 48 hr an interconnected network of tube-like structures is observed.\nCollagen gels were formed by mixing together ice-cold gelatin solution (10× M199, H2O, 0.53M NaHCO3, 200 mM L-glutamine, type I collagen, 0.1M NaOH, 100:27.2:50:10:750:62.5 by volume) and cells in 1× basal medium at a concentration of 3×10^6 cells/ml at a ratio of 4 volumes gelatin solution: 1 volume of cells. After gelation at 37 for 30 min, the gels were overlaid with IX basal medium consisting of M199 supplemented with 1%FBS, 1× ITS, 2 mM L-glutamine, 50 μg/ml ascorbic acid, 26.5 mM NaHCO3, 100 U/ml penicillin and 100 U/mil streptomycin supplemented with 40 ng/ml BFGF, 40 ng/ml VEGF and 80 nM phorbol myristate acetate (PMA). All drugs were added to the IX basal medium immediately after gelation. To quantitate tube formation, the number of tubes per high power (20× field) was determined 48 hr after addition of the basal medium Five independent fields separated by 100 μm optical sections were assessed for each well. Cytotoxicity was assessed using an XTT kit from Boehringer Mannheim (Indianapolis, Ind.)."}, "[2]": {"tested_on": "HUVEC tube formation", "test": "Endothelial tube assay of Example 7 (average tube length, 3-D type I collagen gels)", "settings": "10 μM; 24 h; 3-D collagen gels", "procedure": "Collagen gels were formed by mixing together ice-cold gelation solution (IOX M199, H2O, 0.53M NaHCO3, 200 mM L-glutamine, type I collagen, 0.1M NaOH, 100:27.2:50:10:750:62.5 by volume) and cells in 1× basal medium (see below) at a concentration of 3×10^6 cells/ml at a ratio of 4 volumes gelation solution: 1 volume of cells (18). After gelation at 37° C. for 30 min, the gels were overlaid with 1× basal medium consisting of M199 supplemented with […], 1× ITS, 2 mM L-glutamine, […] ascorbic acid, 26.5 mM NaHCO3, 100 U/ml penicillin and 100 U/ml streptomycin supplemented with 40 ng/ml bFGF, 40 ng/ml VEGF, 80 nM PMA or the combination of PMA (80 nM), bFGF and VEGF (40 ng/ml each). All drugs were added to the 1× basal medium immediately after gelation. To quantify tube formation, the average tube length was determined by measuring total tube length (long axis) in three consecutive layers of a low power (10×) field using Openlab software (Improvision Inc, England). Each layer was separated by 100 μm."}, "[3]": {"tested_on": "PAI-1 mRNA", "test": "Real time RT-PCR (Taqman) assay in HUVEC", "settings": "at 24 hr; HUVEC in three dimensional collagen gels; 10:M 15d-PGJ2", "procedure": "(§1) This technique has been used to quantitatively monitor mRNA expression and has been described in detail previously (Heid, C. A. et al., (1996) Genome Methods 6:986-994; Gerber, H. et al., (1997) J. Biol. Chem. 272:23659-23667). Total RNA was extracted from HUVEC cultured in three dimensional collagen gels or on collagen-coated flasks for various times in 1× basal medium consisting of M199 supplemented with 1%FBS, 1× ITS, 2 mM L-glutamine, 50 μg/ml ascorbic acid, 26.5 mM NaHCO3, 100 U/ml penicillin and 100 U/ml streptomycin supplemented with 40 ng/ml bFGF (basic fibroblast growth factor), 40 ng/ml VEGF and 80 nM PMA […]. […] The primers and probes used were as follows: […] forward primer 5′-[…]-3′ (SEQ ID NO: 7), reverse primer 5′-CACCATCGCGACCAGATG-3′ (SEQ ID NO: 8), and probe 5′-[…]-3′ (SEQ ID NO: 9); […] forward primer 5′-TGACCTGCGGCAACTGG-3′ (SEQ ID NO: 10), reverse primer 5′-[…]-3′ (SEQ ID NO: 11), and probe 5′-[…]-3′ (SEQ ID NO: 12); human PPARβ gene forward primer 5′-[…]-3′ (SEQ ID NO: 13), reverse primer 5′-[…]-3′ (SEQ ID NO: 14), and probe 5′-[…]-3′ (SEQ ID NO: 15); human Flk/KDR gene forward primer 5′-[…]-3′ (SEQ ID NO: 16), reverse primer 5′-[…]-3′ (SEQ ID NO: 17), and probe 5′-[…]-3′ (SEQ ID NO: 18); human Flt-1 gene forward primer 5′-[…]-3′ (SEQ ID NO: 19), reverse primer 5′-[…]-3′ (SEQ ID NO: 20), and probe 5′-[…]-3′ (SEQ ID NO: 21); human uPA gene forward primer 5′-[…]-3′ (SEQ ID NO: 22), reverse primer 5′-GCGCACACCTGCCCTC-3′ (SEQ ID NO: 23), and probe 5′-[…]-3′ (SEQ ID NO: 24); human PAI-1 gene forward primer 5′-TCGTCCAGCGGGATCTGA-3′ (SEQ ID NO: 25), reverse primer 5′-GTGCTCCGGAACAGCCTG-3′ (SEQ ID NO: 26), and probe 5′-[…]-3′ (SEQ ID NO: 27); human glyceraldehyde-3-phosphate dehydrogenase (GAPDH) gene forward 5′-GAAGGTGAAGGTCGGAGTC-3′ (SEQ ID NO: 28), reverse 5′-[…]-3′ (SEQ ID NO: 29), and probe 5′-[…]-3′ (SEQ ID NO: 30). Total RNA (100 ng) was added to a 50 μl RT-PCR reaction mixture according to the manufacturer's protocol (Roche Molecular Systems, Inc., Branchburg, N.J.). The thermal cycling conditions included 1 cycle at 48° C. for 30 min, 1 cycle at 95° C. for 10 min, 40 cycles at 95° C. for 15 s, at 60° C. for 1 min and finally hold at 25° C. for 2 min. Standard curves for expression of each gene were generated by serial dilution of the total RNA isolated from HUVEC. […] Therefore, the relative mRNA expression of each gene was normalized to the level of GAPDH in the same RNA preparation."}, "[4]": {"tested_on": "Flt-1 mRNA", "test": "Real time RT-PCR (Taqman) assay in HUVEC", "settings": "HUVEC in three dimensional collagen gels; VEGF, bFGF, PMA; 10:M 15d-PGJ2", "procedure": "as §1"}, "[5]": {"tested_on": "uPA mRNA", "test": "Real time RT-PCR (Taqman) assay in HUVEC", "settings": "at 4 hr; HUVEC in three dimensional collagen gels; 10:M 15d-PGJ2", "procedure": "as §1"}, "[6]": {"tested_on": "Flk/KDR mRNA", "test": "Real time RT-PCR (Taqman) assay in HUVEC", "settings": "HUVEC in three dimensional collagen gels; VEGF, bFGF, PMA; 10:M 15d-PGJ2", "procedure": "as §1"}}, "data": [{"smiles": "CCCCC/C=C/C=C1/C(=O)C=CC1C/C=C\\CCCC(=O)O", "note": "(stereo not shown) [15d-PGJ2, 15-deoxy-delta^12,14-PGJ2]", "values": [{"measurement": "effect on tube formation (FIG. 1B)", "setting": "[1]; 10 μM, 48 hr", "value": "inhibitory effects"}, {"measurement": "IC50", "setting": "[1]; HUVEC in collagen gels with bFGF, VEGF and PMA, tubes counted at 48 hr, read-out: inhibition of tube formation, IC50", "value": 2800, "unit": "nM"}, {"measurement": "PMA or PMA in combination with bFGF and VEGF induced HUVEC tube formation", "setting": "[2]", "value": "blocked"}, {"measurement": "PAI-1 gene expression", "setting": "[3]", "value": "increased"}, {"measurement": "Flt-1 mRNA induction by growth factors", "setting": "[4]", "value": "inhibited the induction"}, {"measurement": "uPA mRNA", "setting": "[5]", "value": "reduced"}, {"measurement": "KDR mRNA induction by growth factors", "setting": "[6]", "value": "inhibited the induction"}]}]}
